Results as given in patent US8652442B2, “Bioluminescence imaging of myeloperoxidase activity in vivo, methods, compositions and apparatuses therefor” (Washington University, priority 2008, dated 2014).
Where two headings read alike, the source gives them in different places. Each block holds one molecule with its values, some of them ahead of it.

Experiments:
[1] = test system: PMA-stimulated whole blood
Method: Blood was freshly drawn (100-300 μL, by jugular puncture) from MPO^−/− or control MPO^+/+ mice. Blood was stored for up to 6 h in heparinized tubes at room temperature. Ex vivo BLI experiments using whole blood were performed in black-coated 96-well plates. Briefly, 1 μL of blood was diluted in 200 μL of MEBSS supplemented with luminol (100 μM), in the absence or presence of increasing concentrations of 4-ABAFT (0-6.6 mM), L-NMMA (1 mM) or DPI (10 μM). Samples were imaged (exposure time, 60 sec; binning, 4; FOV, 10 cm; open filter) before (t=0) and at the indicated time points after stimulation with PMA (5 μM) or vehicle (DMSO, 1 μL). Photon fluxes±s.e.m. were plotted as a function of time post PMA (min) or concentration of inhibitor.
Luminol-oxidation can be visualized by bioluminescence imaging and is dependent on MPO activity in vitro. Luminol-dependent BL of stimulated phagocytes and whole blood has been extensively studied using photo-multiplier tube (PMT)-based luminometers. To determine whether BLI could be similarly used to detect oxidant production in biological material, we used a charge-coupled device (CCD)-based bioluminescence imaging system to monitor phagocyte activation in heparinized whole blood (1 μL). Fresh heparinized whole blood (1 μL) was incubated with luminol (100 μM) in MEBSS (200 μL). […] Images show sequential color-coded maps of photon flux superimposed on black & white photographs of the assay plates (FIG. 1b).
It is important to note that metals such as iron are highly abundant in blood, but are confined to specific cellular compartments, i.e., hemoglobin in erythrocytes or cytochromes in mitochondrial membranes. […] At t=0, PMA was added to a final concentration of 5 μM and BL was monitored for 60 min at 7.5 min intervals.
To determine the relative contribution of other ROS to the BL signal induced by luminol in stimulated blood ex vivo, we focused on two enzymatically-catalyzed ROS products, O2.- and NO., generated by the Phox complex and nitric oxide synthase (NOS), respectively, as well as their reaction product, peroxynitrite (ONOO^−). Freshly-drawn blood (1 μL) from an MPO^+/+ mouse was incubated with the NOS inhibitor L-NMMA (1 mM) or the Phox inhibitor DPI (10 μM), respectively, and imaged 20 min after stimulation with PMA (5 μM).

human blood = assay: Ex vivo BLI of LGTR and luminol in human whole blood after PMA stimulation; type: cell-based
Method: For analysis of LGTR in whole blood, human blood was freshly drawn from a volunteer (by venous puncture). Blood was stored for up to 6 h in heparinized tubes at room temperature. Ex vivo BLI experiments using whole blood were performed in black-coated 96-well plates. Briefly, 200 μL of blood was added to the wells. LGTR, luminol, or DMSO ([…] of each) were added to the wells. Samples were imaged (exposure time, 160 sec; binning, 8; FOV, 10 cm; open filter or >590 nm) before (t=0) and at the indicated time points after stimulation with PMA (5 μM) or vehicle (ethanol, 1 μL). Photon fluxes±s.e.m. were plotted as a function of time post PMA (min) (FIG. 19). […] In addition, to isolate the buffy coat (white cells), whole blood was centrifuged at 700 rpm for 8 min, and subjected to the same analysis.

purified MPO = molecular target: T1, purified MPO (Homo sapiens, UniProt P05164); assay: Output of LGTR and luminol in vitro with purified MPO and H2O2; type: biochemical; conditions: for light output: purified MPO mixed with 100% serum rather than MEBSS
T1 construct: purchased Calbiochem
Description: To analyze the output of LGTR and luminol in vitro, […] of each were mixed with purified MPO (5 mU) and vehicle (MEBSS).

MPO activity [2] = assay: BLI of allergic contact hypersensitivity with topical LGTR or luminol, optical filter sets; type: in vivo, mice
Method: Thirty min later, mice were simultaneously imaged in the IVIS 100 imaging system (FOV, 10 cm; binning, 8; acquisition time, 300 sec; f/stop, 1) using four different optical filter sets in rapid sequence: 1) no filter, 2) <510 nm filter, 3) >590 nm filter, and 4) >650 nm filter (FIG. 22, FIG. 23). The photon flux as a percentage of an open filter was compared for both compounds (FIG. 23).
Briefly, murine anti-DNP IgE (20 μg, 100 μl) was intravenously injected to two C57/B mice.
Administration of luminol derivatives and imaging: Forty-eight hours post DNFB treatment, luminol-glycine Texas Red (LGTR, 1 mM in DMSO, left mouse) or luminol (1 mM In DMSO, right mouse) were applied topically (45 μl per ear) on both left and right ears. Thirty minutes later, mice were simultaneously imaged using the IVIS 100 imaging system (FOV 10 cm; binning, 8; acquisition time. 300 sec; f/stop, 1) using four different optical filler sets: (1) no filter, (2)<510 nm filler, (3)>590 nm filter and (4)>650 nm filter.

MPO [3] = molecular target: T2, MPO (Homo sapiens, UniProt P05164); assay: Dye stability: absorption spectra after treatment with H2O2 and MPO; type: physicochemical; design: purchased Calbiochem; conditions: H2O2 and MPO in Tris buffer, 30, 60 and 90 min
Method: In these experiments, absorption spectra were collected for Texas Red (TXR) and Infrared Dye 820 (IRD) treated with H2O2 and MPO (5 mU) in Tris buffer solution for 30 min, 60 min and 90 min as indicated. […] In these experiments, absorption spectra were collected (RLU vs nm wavelength) of Texas Red (TXR) and Infrared Dye 820 (IRD) treated with H2O2 and MPO ([…]) in Tris buffer solution for 30 min, 60 min and 90 min as indicated. (FIG. 17). […] (FIG. 18). […] Thus, in vitro NIR bioluminescence can be used to study dye and fluorophore stability under various experimental conditions. […]

MPO activity [4] = conditions: mouse, in vivo
Method: MPO^−/− (n=5) or control MPO^+/+ (n=5) mice were briefly anaesthetized (isoflurane inhalation) and LPS (20 μg in 20 μL PBS) or vehicle (PBS, 20 μL) were injected into the left or right ankles, respectively, using a 30-gauge needle. Mice were administered luminol (as above) and imaged immediately after LPS administration under anesthesia (isoflurane inhalation), as well as 1, 2, 3, 4 and 5 days later (exposure time, 180 sec; binning, 4; FOV, 10 cm). ROIs were manually selected over the left and right feet (LPS-treated and untreated, respectively) and over the proximal part of the tail (background). Data were expressed as (LPS—background)/(vehicle—background)±s.e.m.
We next imaged MPO activity in a focal arthritis model. […] LPS was injected to the joints of the left lower limbs of wild type MPO^+/+ (FIG. 3b, left panel, n=5) or MPO^−/− mice (FIG. 3b, right panel, n=5). Vehicle (PBS) was injected into the joints of the right lower limbs. At t=0 (before LPS injection), 24, 48, 72, 96 and 120 h, luminol was administered (200 mg/kg BW, i.p.) and mice were imaged.

MPO activity [5] = conditions: mouse, in vivo; remark: listed apart in the source
Method: To induce acute skin inflammation (Fretland, D. J. et al. Inflammation 19, 333-346, 1995), PMA (100 μM, 20 μL) or vehicle (ethanol) were applied topically (left and right ear, respectively) on the inner and outer surface of the earlobe of MPO^−/− (n=5) or control (n=5) mice. Twenty-four and 48 hours later, luminol was administered (200 mg/kg BW, i.p.) and 10 min later mice were imaged (exposure time, 180 see; binning, 4; FOV, 7.5 cm) under anesthesia (isoflurane inhalation). ROI's were manually selected over the left and right ear lobes (PMA-treated and untreated, respectively) and over the central part of the skull (background). Data were expressed as (PMA—background)/(vehicle—background)±s.e.m.
Topical application of PMA onto the earlobes of mice induces acute dermatitis, manifested by local swelling, erythema and infiltration of neutrophils. […] We therefore used this model for assessment of MPO activity by luminol-BLI in both MPO^+/+ and MPO^−/− mice. Acute dermatitis was generated by topical application of PMA on the left ear lobe of MPO^+/+ or MPO^−/− mice (shown are three representative mice for each genetic background, n=5 for each). Twenty-four hours after topical application of PMA, mice were imaged (FIG. 3a) following the administration of luminol (200 mg/kg BW, i.p.).

[6] = systemic administration; cited from earlier work
MPO activity [7] = conditions: mouse, in vivo; remark: listed apart in the source
Method: GzB→Tax mice were monitored for tumorigenesis on ears, limbs and tails by visual examination and palpation, weekly, for 200-300 days after birth. Ten mice with visible tumors at various sizes (1-8 mm in diameter) and locations were administered luminol (200 mg/kg BW, i.p.) and imaged (exposure time, 300 sec; binning, 4; FOV, 10 cm) under anesthesia (isoflurane inhalation). Tumors were excised, fixed in paraformaldehyde (4%), paraffin-embedded, sectioned (5 μm) and stained with H&E or immuno-stained for MPO (see below).
We next used BLI to examine tumor-bearing GzB→Tax mice after intraperitoneal administration of luminol (200 mg/kg BW, i.p., FIG. 5 c-g).

MPO [8] = molecular target: T2, MPO
Method: Matrigel was used to immobilize human MPO and/or GOX (that produces H2O2) in vivo (Chen, J. W., et al., Radiology 240, 473-481, 2006). Briefly, GOX (30 U), MPO (20 U), vehicle (PBS) or GOX+MPO (30 and 20 U, respectively) were added to Matrigel (200 μL) at 4° C. The four different mixtures were injected subcutaneously into different locations on the back of NCr nu/nu mice. Thirty minutes later, mice were anesthetized (isoflurane inhalation), administered luminol (200 mg/kg BW, i.p.) and imaged sequentially (exposure time, 60 sec; binning, 4; FOV, 7.5 cm) every 5 minutes up to one hour. Regions of interest (ROI) were manually selected over the four implants and total photon emissions from each implant were plotted as a function of time.
We next determined the biochemical requirements and pharmacokinetics of luminol-BL in an intact animal and whether MPO activity could be imaged in vivo. […] We embedded GOX (30 U), MPO (20 U); MPO+GOX (same concentrations) or vehicle (PBS) in Matrigel solution and established subcutaneous implants of these mixtures on the backs of NCR nu/nu mice (n=3, FIG. 2a).
Photon fluxes were determined from ROI's, manually drawn over the different implants and plotted as a function of time.

MPO activity [9] = conditions: 24 h after DNFB, luminol 200 mg/kg BW i.p.
Method: Briefly, murine anti-DNP IgE (20 μg in 100 μl, Sigma-Aldrich) was injected intravenously into 13 MPO^+/+ and 9 MPO^−/− mice. One control mouse of each genetic MPO background was injected with vehicle (saline) only. Twenty-four hours later, all left ears were painted with DNFB (0.2% in acetone:olive oil, 1:3) and all right ears were painted with vehicle (acetone:olive oil, 1:3). On the next day, all mice were imaged following luminol administration (200 mg/kg BW, i.p.). Mice were euthanized immediately after imaging and histological specimens were prepared from both left and right ears by fixation with paraformaldehyde (4%), de-calcification (24 h in 14% EDTA), paraffin-embedding, sectioning (5 μm) and staining with H&E. For each condition, eosinophils were counted in 5 HPF (magnification ×400).
Eosinophil-dominant recruitment and activation was induced by passive immunization against DNP followed by topical challenge with DNFB (Ray, M., et al., J. Immunol. 131, 1096-1102, 1983) in both MPO+/+ control as well as MPO^−/− mice. […] Acute allergic dermatitis was induced by passive immunization with anti-DNP IgE and topical challenge with DNFB on the left ear lobes of MPO^+/+ (n=14) and MPO^−/− (n=10) mice. Right ears served as vehicle controls and mice challenged with DNFB, but not anti-DNP IgE, served as negative controls. […]

[10] = whole blood 1 μL, luminol 100 μM, PMA 5 μM

T1 sequence (P05164 279-745 limits assumed): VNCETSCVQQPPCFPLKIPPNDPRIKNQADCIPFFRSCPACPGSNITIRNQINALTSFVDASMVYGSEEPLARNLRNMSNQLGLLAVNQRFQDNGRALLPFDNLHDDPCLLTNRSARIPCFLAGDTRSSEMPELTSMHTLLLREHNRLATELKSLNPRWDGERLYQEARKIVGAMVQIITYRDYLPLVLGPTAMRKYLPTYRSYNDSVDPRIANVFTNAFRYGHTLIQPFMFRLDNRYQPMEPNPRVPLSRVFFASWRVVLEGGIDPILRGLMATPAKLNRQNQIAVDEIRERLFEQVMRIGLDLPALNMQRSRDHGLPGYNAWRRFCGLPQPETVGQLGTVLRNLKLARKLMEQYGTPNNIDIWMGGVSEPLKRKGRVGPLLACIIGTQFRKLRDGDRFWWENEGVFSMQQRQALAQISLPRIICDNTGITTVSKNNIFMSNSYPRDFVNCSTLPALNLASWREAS
T1 sequence (P05164 165-273 limits assumed): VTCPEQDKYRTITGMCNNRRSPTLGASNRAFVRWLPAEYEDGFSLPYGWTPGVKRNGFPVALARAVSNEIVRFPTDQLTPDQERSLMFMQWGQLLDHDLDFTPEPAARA
T2 sequence (P05164 279-745 limits assumed): as the sequence (P05164 279-745 limits assumed) above
T2 sequence (P05164 165-273 limits assumed): as the sequence (P05164 165-273 limits assumed) above

Structure (SMILES): CN=C(N)NCCC[C@H](N)C(=O)O.O=C(O)CC(O)(CC(=O)O)C(=O)O [L-NMMA, L-N^G-monomethyl arginine citrate]
effect on luminol-dependent BL ([1]; L-NMMA 1 mM, MPO+/+ mouse blood, imaged 20 min after PMA 5 μM): did not cause a significant reduction

Structure (SMILES): c1ccc2c(c1)[I+]c1ccccc1-2 [DPI, diphenyleneiodonium]
effect on PMA-induced BL ([1]; DPI 10 μM, MPO+/+ mouse blood, imaged 20 min after PMA 5 μM): complete abrogation

percent of the signal greater than 590 nm (red spectrum) (purified MPO; purified MPO 5 mU in MEBSS buffer, H2O2 50 μM): ~75% | brightness compared with luminol (purified MPO; purified MPO in MEBSS buffer): brighter than luminol | light output (purified MPO): no light output
Structure (SMILES): O=C(CCCCCNS(=O)(=O)c1ccc(C2=c3cc4c5c(c3Oc3c2cc2c6c3CCCN6CCC2)CCC[N+]=5CCC4)c(S(=O)(=O)[O-])c1)NCC(=O)Nc1cccc2c(=O)[nH][nH]c(=O)c12 [LGTR]
signal over the luminol signals (human blood; early time points in whole blood): greater than 75% | fraction of signal that was red (>590 nm) (human blood; human whole blood, 12 min post PMA stimulation): greater than 75% | BL after induction of acute contact hypersensitivity (MPO activity [2]; MPO+/+ mice, 1 mM in DMSO topical, 45 μl per ear): substantial LGTR-BL | photon flux compared with luminol (MPO activity [2]; filters >590 and 650 nm, topical 1 mM in DMSO): 3-4 fold

signal generated (purified MPO; control compound, purified MPO): no signal
Structure (SMILES): NCC(=O)Nc1cccc2c(=O)[nH][nH]c(=O)c12 [luminol-glycine, 2-Amino-N-(1,4-dioxo-1,2,3,4-tetrahydrophthalazine-5-yl)acetamide]

Structure (SMILES): CC1(C)C(=CC=C2CCCC(C=CC3=[N+](CCCCS(=O)(=O)[O-])c4ccc5ccccc5c4C3(C)C)=C2Cl)N(CCCCS(=O)(=O)[O-])c2ccc3ccccc3c21.[Na+] [IRD]
stability on exposure to MPO over time (MPO [3]): loss of IRD molecular integrity over time

light output (purified MPO): no light output | signal-to-background ratio for luminol-BLI (MPO [8]; MPO+GOX Matrigel implants in vivo): exceeded 3000 | absorption upon i.p. injection (MPO [8]; luminol 200 mg/kg BW i.p.): rapidly absorbed | time to maximum BL after injection (MPO [8]; luminol 200 mg/kg BW i.p., MPO+GOX implant, NCr nu/nu mice): 10 min
Structure (SMILES): Nc1cccc2c(=O)[nH][nH]c(=O)c12 [luminol, 5-amino-2,3-dihydro-1,4-phthalazine-dione]
BL signal over background (MPO activity [4]): 10 to 15 fold | luminol-BL from LPS- or vehicle-treated joints (MPO activity [4]): negligible | peak BL emission, fold over vehicle-treated foot (MPO activity [4]): 25 to 30 fold | photon output compared (human blood; human whole blood following PMA stimulation): exceeded LGTR | BL of PMA-treated ears over vehicle-treated ears (MPO activity [5]): 1.9±0.5 fold | background-normalized BL of PMA-treated ears over vehicle-treated ears (MPO activity [5]): 13.1±0.2 fold | absorption and excretion [6]: well absorbed and rapidly excreted | toxicity [6]: relatively non-toxic | signal-to-background ratio ([1]; few thousand phagocytes in 1 μL whole blood): > 30 | luminol-BL with whole blood of MPO−/− mice ([1]; luminol 100 μM, PMA 5 μM, 0-55 min): undetectable | peak BL over background values [1, 10]: 30-40 fold | time of BL peak post stimulation [1, 10]: 20 to 25 min | localization of luminol-BL in tumor-bearing mice (MPO activity [7]): colocalized with foci of tumorigenesis | luminol-BL signal from inflamed ears (MPO activity [9]; MPO+/+ mice): substantial luminol-BL | luminol-BL signal from inflamed ears (MPO activity [9]; MPO−/− mice): no significant luminol-BL signal
